This experiment deals with TNFα. The experiment in a line: In vitro assay: TNFα ELISA of supernatants of LPS-stimulated human PBMC. Type of experiment: cell-based. To be noted: human PBMC pretreated with drug 60 min, stimulated with LPS (E. coli O55:B5) 100 ng/mL, overnight culture, TNFα in supernatant by ELISA, read-out: 50% Inhibition of TNFα level (IC50). How it is done: Enzyme-linked immunosorbent assays (ELISA) for TNFα can be performed in a conventional manner (Blood, 75, 40-47 (1990)). Human PBMC are isolated from heparinized venous blood obtained from healthy volunteers by Ficoll-Hypaque density centrifugation. The cells are cultured in RPMI1640 medium supplemented with 5% heat-inactivated fetal calf serum and antibiotics. PBMC (5×10E5 cells/mL) in 0.2 mL aliquot are pretreated with drugs in DMSO for 60 min at 37° C. in 96 well round-bottomed tissue culture plates. Thereafter, PBMC in the presence or absence of compound are stimulated with 1 mg/mL LPS from E. coli O55:B5 at a final concentration of 100 ng/mL. After overnight culture, the supernatants are harvested and assayed immediately for TNFα levels from each well. The concentration of TNFα in the supernatant is determined by human TNFα ELISA Kit according to the manufacture's directions.
Active compounds are characterized by the concentration of the compound that caused 50% inhibition of TNFα level (IC50).

The record followed here is US7994318B2, “Coumarin derivatives useful as TNFα inhibitors” (Chugai Seiyaku Kabushiki Kaisha, priority 2000, dated 2011).

Like-named read-outs stand apart in the source and are kept apart here.

The term IC50 denotes the midpoint of a concentration-inhibition curve.

`CCOC(=O)CNC(=O)Nc1cccc(Cc2c(C)c3ccc(OC(=O)N(C)C)cc3oc2=O)c1` [Example 14-71]: the IC50 stood at 2.4 µM.

`CC(=O)Nc1ccc(Cc2c(C)c3ccc(OC(=O)N(C)C)cc3oc2=O)cc1` [Example 14-61]: the half-maximal inhibitory concentration (IC50) was 5.8 µM.

Take `COc1ccc(Cc2c(C)c3ccc(OC(=O)N(C)C)cc3oc2=O)cc1` [Example 14-46]: the IC50 turned out to be 5.6 µM.

With `Cc1c(Cc2ccccc2N)c(=O)oc2cc(OC(=O)N(C)C)c(Cl)cc12` [Example 14-20], the IC50 stood at 0.49 µM.

For the compound `CC(=O)Nc1cccc(Cc2c(C)c3cc(Cl)c(OC(=O)N(C)C)cc3oc2=O)c1` [Example 12, dimethyl carbamic acid 2-oxo-2H-3-(m-acetylamidobenzyl)-4-methyl-6-chloro1-benzopyran-7-yl ester], the half-maximal inhibitory concentration (IC50) by setting is: (Homo sapiens, PBMC) < 0.6 µM; (listed as 14-25) 0.31 µM.

Regarding `Cc1c(Cc2ccccc2N)c(=O)oc2cc(OC(=O)N(C)C)ccc12` [Example 14-64], the half-inhibitory concentration (IC50) was determined as 2.1 µM.

As to `Cc1c(Cc2ccccc2)c(=O)oc2cc(Cn3ccnc3N)c(Cl)cc12` [Example 26-16], the concentration for half-maximal inhibition (IC50) stood at 8.6 µM.

In the case of `COc1ccccc1Cc1c(C)c2ccc(OC(=O)N(C)C)cc2oc1=O` [Example 14-44], the IC50 came out at 7.5 µM.

On to `Cc1c(Cc2ccc(N)cc2)c(=O)oc2cc(OC(=O)N(C)C)ccc12` [Example 14-66], for which the IC50 stood at 5.2 µM.

With `CCc1c(Cc2cccc([N+](=O)[O-])c2)c(=O)oc2cc(Oc3nccs3)ccc12` [Example 22-11], the concentration for half-maximal inhibition (IC50) worked out at 3.2 µM.

Turning to `Cc1c(Cc2ccccc2)c(=O)oc2cc(OC(=O)N(C)C)c(Br)cc12` [Example 14-15], the IC50 amounted to 0.06 µM.

Turning to `CCS(=O)(=O)Nc1cccc(Cc2c(C)c3cc(Cl)c(Oc4ncccn4)cc3oc2=O)c1` [Example 20-44], the 50% inhibitory concentration (IC50) is 0.3 µM.

For the compound `Cc1c(Cc2ccncc2)c(=O)oc2cc(Oc3ncccn3)ccc12` [Example 20-10], the concentration for half-maximal inhibition (IC50) was 10.4 µM.

Take `CCCc1c(Cc2ccccc2)c(=O)oc2cc(OC(=O)N(C)C)c(Cl)cc12` [Example 14-83]: the IC50 came to 0.78 µM.

As for `CCc1c(Cc2cccc(N)c2)c(=O)oc2cc(OC(=O)N(C)C)ccc12` [Example 14-78], the 50% inhibitory concentration (IC50) stood at 1.3 µM.

As to `Cc1c(Cc2ccccc2)c(=O)oc2cc(Cn3ccnc3N)ccc12` [Example 25, 2-oxo-3-benzyl-4-methyl-7-(2-aminoimidazol-1-yl-methyl)-1H-benzopyrane], the concentration for half-maximal inhibition (IC50) came to 13.7 µM. The IC50 (Homo sapiens, PBMC) was determined as 11.8 µM.

With `Cc1c(Cc2cccc(N)c2)c(=O)oc2cc(Oc3ncccn3)c(Cl)cc12` [Example 20-26], the concentration for half-maximal inhibition (IC50) was determined as 9.8 µM.

As to `Cc1c(Cc2cccc([N+](=O)[O-])c2)c(=O)oc2cc(Oc3nccs3)ccc12` [Example 22-2], the half-inhibitory concentration (IC50) turned out to be 6.6 µM.

As to `Cc1c(Cc2cccc(N)c2)c(=O)oc2cc(OC(=O)N(C)C)c(Cl)cc12` [Example 14-24], the 50% inhibitory concentration (IC50) is 0.46 µM.

Take `CCc1cc2c(C)c(Cc3ccccc3)c(=O)oc2cc1OC(=O)N(C)C` [Example 14-9]: the concentration for half-maximal inhibition (IC50) was found to be 4.6 µM.

As for `CCOC(=O)CCC(=O)Nc1cccc(Cc2c(C)c3ccc(Oc4ncccn4)cc3oc2=O)c1` [Example 20-21], the IC50 stood at 2.8 µM.

Regarding `CC(=O)Nc1cccc(Cc2c(C)c3c(F)cc(OC(=O)N(C)C)cc3oc2=O)c1` [Example 14-7], the IC50 was found to be 1 µM.

Turning to `Cc1c(Cc2cccc(N(C)C)c2)c(=O)oc2cc(Oc3ncccn3)c(Cl)cc12` [Example 20-27], the IC50 was 5.1 µM.

Regarding `Cc1c(Cc2cccc([N+](=O)[O-])c2)c(=O)oc2cc(OC(=O)N(C)C)cc(F)c12` [Example 14-5], the IC50 was 3.7 µM.

As for `Cc1c(Cc2cccc([N+](=O)[O-])c2)c(=O)oc2cc(OC(=O)N(C)C)ccc12` [Example 14-56], the IC50 is 4.5 µM.

`CCc1c(Cc2ccccc2)c(=O)oc2cc(OC(=O)N(C)C)c(Cl)cc12` [Example 14-74]: the IC50 stood at 0.24 µM.

Take `CCc1c(Cc2ccccc2)c(=O)oc2cc(Oc3nccs3)ccc12` [Example 22-10]: the IC50 stood at 2.5 µM.
